# Literature values in patent publication US8278324B2, “Oxadiazole derivatives active on sphingosine-1-phosphate (S1P)” (Glaxo Group Limited, priority 2007, dated 2012).
# Columns and labels:
# circulating lymphocytes = settings: animals and man
# [1] = clinical studies, first 24 hours of treatment
structure (smiles),measurement,setting,value
CCCCCCCCc1ccc(CCC(N)(CO)CO)cc1 [FTY720],effect on circulating lymphocytes,circulating lymphocytes,reduce circulating lymphocytes
same,bradycardia,[1],results in bradycardia
